Source: ChEMBL document CHEMBL1201861, “Genomics of Drug Sensitity in Cancer screening data, Wellcome Trust Sanger Institute”

How the values were obtained:
COR-L279 = assay: SANGER: Inhibition of human COR-L279 cell growth in a cell viability assay.; assay type: functional, cell-based; settings: Homo sapiens, COR-L279
DMS-79 = assay: cells; assay type: functional, cell-based, Homo sapiens; settings: Homo sapiens, DMS-79
Description: SANGER: Inhibition of human DMS-79 cell growth in a cell viability assay.

EB2 = assay: cells; assay type: functional, cell-based, Homo sapiens; settings: Homo sapiens, EB2
Description: SANGER: Inhibition of human EB2 cell growth in a cell viability assay.

K052 = assay: cells; assay type: functional, cell-based, Homo sapiens; settings: Homo sapiens, K052
Description: SANGER: Inhibition of human K052 cell growth in a cell viability assay.

KARPAS-422 = assay: cells; assay type: functional, cell-based, Homo sapiens; settings: Homo sapiens, KARPAS-422
Description: SANGER: Inhibition of human KARPAS-422 cell growth in a cell viability assay.

KP-N-RT-BM-1 = assay: SANGER: Inhibition of human KP-N-RT-BM-1 cell growth in a cell viability assay.; assay type: functional, cell-based
LP-1 = assay: cells; assay type: functional, cell-based, Homo sapiens; settings: Homo sapiens, LP-1
Description: SANGER: Inhibition of human LP-1 cell growth in a cell viability assay.

MDA-MB-134-VI = assay: cells; assay type: functional, cell-based, Homo sapiens; settings: Homo sapiens, MDA-MB-134-VI
Description: SANGER: Inhibition of human MDA-MB-134-VI cell growth in a cell viability assay.

MONO-MAC-6 = assay: cells; assay type: functional, cell-based, Homo sapiens; settings: Homo sapiens, MONO-MAC-6
Description: SANGER: Inhibition of human MONO-MAC-6 cell growth in a cell viability assay.

NALM-6 = assay: cells; assay type: functional, cell-based, Homo sapiens; settings: Homo sapiens, NALM-6
Description: SANGER: Inhibition of human NALM-6 cell growth in a cell viability assay.

NCI-H345 = assay: cells; assay type: functional, cell-based, Homo sapiens; settings: Homo sapiens, NCI-H345
Description: SANGER: Inhibition of human NCI-H345 cell growth in a cell viability assay.

SIG-M5 = assay: cells; assay type: functional, cell-based, Homo sapiens; settings: Homo sapiens, SIG-M5
Description: SANGER: Inhibition of human SIG-M5 cell growth in a cell viability assay.

SNU-C1 = assay: cells; assay type: functional, cell-based, Homo sapiens; settings: Homo sapiens, SNU-C1
Description: SANGER: Inhibition of human SNU-C1 cell growth in a cell viability assay.

Ca-Ski = assay: cells; assay type: functional, cell-based; settings: Homo sapiens
Description: SANGER: Inhibition of human Ca-Ski cell growth in a cell viability assay.

ChaGo-K-1 = assay: cells; assay type: functional, cell-based; settings: Homo sapiens
Description: SANGER: Inhibition of human ChaGo-K-1 cell growth in a cell viability assay.

D-423MG = assay: cells; assay type: functional, cell-based; settings: Homo sapiens
Description: SANGER: Inhibition of human D-423MG cell growth in a cell viability assay.

D-566MG = assay: cells; assay type: functional, cell-based; settings: Homo sapiens
GAMG = assay: cells; assay type: functional, cell-based; settings: Homo sapiens
Description: SANGER: Inhibition of human GAMG cell growth in a cell viability assay.

GMS-10 = assay: cells; assay type: functional, cell-based; settings: Homo sapiens
Description: SANGER: Inhibition of human GMS-10 cell growth in a cell viability assay.

HLE = assay: cells; assay type: functional, cell-based; settings: Homo sapiens
Description: SANGER: Inhibition of human HLE cell growth in a cell viability assay.

HOP-92 = assay: cells; assay type: functional, cell-based; settings: Homo sapiens
Description: SANGER: Inhibition of human HOP-92 cell growth in a cell viability assay.

KNS-62 = assay: cells; assay type: functional, cell-based; settings: Homo sapiens
Description: SANGER: Inhibition of human KNS-62 cell growth in a cell viability assay.

KP-N-YN = assay: cells; assay type: functional, cell-based; settings: Homo sapiens
Description: SANGER: Inhibition of human KP-N-YN cell growth in a cell viability assay.

KYSE-140 = assay: cells; assay type: functional, cell-based; settings: Homo sapiens
Description: SANGER: Inhibition of human KYSE-140 cell growth in a cell viability assay.

LU-99A = assay: cells; assay type: functional, cell-based; settings: Homo sapiens
Description: SANGER: Inhibition of human LU-99A cell growth in a cell viability assay.

MOLT-13 = assay: cells; assay type: functional, cell-based; settings: Homo sapiens
Description: SANGER: Inhibition of human MOLT-13 cell growth in a cell viability assay.

NBsusSR = assay: cells; assay type: functional, cell-based; settings: Homo sapiens
Description: SANGER: Inhibition of human NBsusSR cell growth in a cell viability assay.

NCI-H1048 = assay: cells; assay type: functional, cell-based; settings: Homo sapiens
Description: SANGER: Inhibition of human NCI-H1048 cell growth in a cell viability assay.

NCI-H2291 = assay: cells; assay type: functional, cell-based; settings: Homo sapiens
Description: SANGER: Inhibition of human NCI-H2291 cell growth in a cell viability assay.

NCI-H358 = assay: cells; assay type: functional, cell-based; settings: Homo sapiens
Description: SANGER: Inhibition of human NCI-H358 cell growth in a cell viability assay.

NUGC-3 = assay: cells; assay type: functional, cell-based; settings: Homo sapiens
Description: SANGER: Inhibition of human NUGC-3 cell growth in a cell viability assay.

OE33 = assay: cells; assay type: functional, cell-based; settings: Homo sapiens
Description: SANGER: Inhibition of human OE33 cell growth in a cell viability assay.

OVCAR-8 = assay: cells; assay type: functional, cell-based; settings: Homo sapiens
Description: SANGER: Inhibition of human OVCAR-8 cell growth in a cell viability assay.

PC-14 = assay: cells; assay type: functional, cell-based; settings: Homo sapiens
Description: SANGER: Inhibition of human PC-14 cell growth in a cell viability assay.

SBC-5 = assay: cells; assay type: functional, cell-based; settings: Homo sapiens
Description: SANGER: Inhibition of human SBC-5 cell growth in a cell viability assay.

SW-620 = assay: cells; assay type: functional, cell-based; settings: Homo sapiens
Description: SANGER: Inhibition of human SW620 cell growth in a cell viability assay.

T47D = assay: cells; assay type: functional, cell-based; settings: Homo sapiens
Description: SANGER: Inhibition of human T47D cell growth in a cell viability assay.

CWR22R = assay: cells; assay type: functional, cell-based; settings: Homo sapiens, 22Rv1
Description: SANGER: Inhibition of human 22RV1 cell growth in a cell viability assay.

5637 = assay: cells; assay type: functional, cell-based; settings: Homo sapiens
Description: SANGER: Inhibition of human 5637 cell growth in a cell viability assay.

647-V = assay: cells; assay type: functional, cell-based; settings: Homo sapiens
Description: SANGER: Inhibition of human 647-V cell growth in a cell viability assay.

8505C = assay: cells; assay type: functional, cell-based; settings: Homo sapiens
Description: SANGER: Inhibition of human 8505C cell growth in a cell viability assay.

A-431 = assay: cells; assay type: functional, cell-based; settings: Homo sapiens
Description: SANGER: Inhibition of human A431 cell growth in a cell viability assay.

A549 = assay: cells; assay type: functional, cell-based; settings: Homo sapiens
Description: SANGER: Inhibition of human A549 cell growth in a cell viability assay.

CAL-12T = assay: cells; assay type: functional, cell-based; settings: Homo sapiens
Description: SANGER: Inhibition of human CAL-12T cell growth in a cell viability assay.

TGBC11TKB = assay: cells; assay type: functional, cell-based; settings: Homo sapiens
Description: SANGER: Inhibition of human TGBC11TKB cell growth in a cell viability assay.

U-118-MG = assay: cells; assay type: functional, cell-based; settings: Homo sapiens
Description: SANGER: Inhibition of human U-118-MG cell growth in a cell viability assay.

YAPC = assay: cells; assay type: functional, cell-based; settings: Homo sapiens
Description: SANGER: Inhibition of human YAPC cell growth in a cell viability assay.

YH-13 = assay: cells; assay type: functional, cell-based; settings: Homo sapiens
Description: SANGER: Inhibition of human YH-13 cell growth in a cell viability assay.

ZR-75-30 = assay: cells; assay type: functional, cell-based; settings: Homo sapiens
Description: SANGER: Inhibition of human ZR-75-30 cell growth in a cell viability assay.

CFPAC-1 = assay: cells; assay type: functional, cell-based; settings: Homo sapiens
Description: SANGER: Inhibition of human CFPAC-1 cell growth in a cell viability assay.

## C[C@@H](Oc1cc(-c2cnn(C3CCNCC3)c2)cnc1N)c1c(Cl)ccc(F)c1Cl [CRIZOTINIB]
COR-L279
  IC50: > 2000 nM
DMS-79
  IC50: > 2000 nM
EB2
  IC50: > 2000 nM
K052
  IC50: > 2000 nM
KARPAS-422
  IC50: > 2000 nM
KP-N-RT-BM-1
  IC50: > 2000 nM
LP-1
  IC50: > 2000 nM
MDA-MB-134-VI
  IC50: > 2000 nM
MONO-MAC-6
  IC50: > 2000 nM
NALM-6
  IC50: > 2000 nM
NCI-H345
  IC50: > 2000 nM
SIG-M5
  IC50: > 2000 nM
SNU-C1
  IC50: > 2000 nM

## CN(NC(=O)CC(=O)NN(C)C(=S)c1ccccc1)C(=S)c1ccccc1 [ELESCLOMOL]
Ca-Ski
  IC50: > 200 nM
ChaGo-K-1
  IC50: 5.4 nM
D-423MG
  IC50: 12 nM
D-566MG
  IC50: 15.2 nM
DMS-79
  IC50: > 200 nM
GAMG
  IC50: 2.51 nM
GMS-10
  IC50: 107 nM
HLE
  IC50: 9.93 nM
HOP-92
  IC50: 12.7 nM
KNS-62
  IC50: 9.62 nM
KP-N-YN
  IC50: 65.6 nM
KYSE-140
  IC50: 21 nM
LU-99A
  IC50: > 200 nM
MOLT-13
  IC50: > 200 nM
NBsusSR
  IC50: 3.13 nM
NCI-H1048
  IC50: 18.4 nM
NCI-H2291
  IC50: > 200 nM
NCI-H358
  IC50: 13.6 nM
NUGC-3
  IC50: 7.33 nM
OE33
  IC50: > 200 nM
OVCAR-8
  IC50: 3.99 nM
PC-14
  IC50: 24.7 nM
SBC-5
  IC50: 21.6 nM
SW-620
  IC50: 40.7 nM
T47D
  IC50: 16.8 nM
CWR22R
  IC50: 11.3 nM
5637
  IC50: 35.5 nM
647-V
  IC50: 6.9 nM
8505C
  IC50: 10.5 nM
A-431
  IC50: 126 nM
A549
  IC50: 19.6 nM
CAL-12T
  IC50: 63 nM
TGBC11TKB
  IC50: > 200 nM
U-118-MG
  IC50: > 200 nM
YAPC
  IC50: 70.3 nM
YH-13
  IC50: 24.1 nM
ZR-75-30
  IC50: 47.9 nM
CFPAC-1
  IC50: > 200 nM

## Nc1ccccc1NC(=O)c1ccc(CNC(=O)OCc2cccnc2)cc1 [ENTINOSTAT]
COR-L279
  IC50: 710 nM
DMS-79
  IC50: 2540 nM
EB2
  IC50: > 5000 nM
KARPAS-422
  IC50: 1450 nM
LP-1
  IC50: 1300 nM
MDA-MB-134-VI
  IC50: 1290 nM
MOLT-13
  IC50: 338 nM
MONO-MAC-6
  IC50: 388 nM
NALM-6
  IC50: 649 nM
NCI-H345
  IC50: 2330 nM
SIG-M5
  IC50: 578 nM
SNU-C1
  IC50: > 5000 nM

## COc1cc(N2CCC(N3CCN(C)CC3)CC2)ccc1Nc1ncc(Cl)c(Nc2ccccc2S(=O)(=O)C(C)C)n1 [TAE-684]
COR-L279
  IC50: > 2000 nM
DMS-79
  IC50: > 2000 nM
EB2
  IC50: > 2000 nM
K052
  IC50: > 2000 nM
KARPAS-422
  IC50: 1100 nM
KP-N-RT-BM-1
  IC50: 331 nM
LP-1
  IC50: 1870 nM
MDA-MB-134-VI
  IC50: > 2000 nM
MONO-MAC-6
  IC50: 333 nM
NALM-6
  IC50: 907 nM
NCI-H345
  IC50: > 2000 nM
SIG-M5
  IC50: 292 nM
SNU-C1
  IC50: > 2000 nM

## CC1=C(/C=C/C(C)=C/C=C/C(C)=C/C(=O)O)C(C)(C)CCC1 [TRETINOIN]
Ca-Ski
  IC50: > 10000 nM
ChaGo-K-1
  IC50: > 10000 nM
D-423MG
  IC50: > 10000 nM
D-566MG
  IC50: > 10000 nM
DMS-79
  IC50: > 10000 nM
GAMG
  IC50: > 10000 nM
GMS-10
  IC50: > 10000 nM
HLE
  IC50: > 10000 nM
HOP-92
  IC50: > 10000 nM
KNS-62
  IC50: > 10000 nM
KP-N-YN
  IC50: > 10000 nM
KYSE-140
  IC50: > 10000 nM
LU-99A
  IC50: > 10000 nM
MOLT-13
  IC50: 1150 nM
NBsusSR
  IC50: 1450 nM
NCI-H1048
  IC50: > 10000 nM
NCI-H2291
  IC50: > 10000 nM
NCI-H358
  IC50: > 10000 nM
NUGC-3
  IC50: > 10000 nM
OE33
  IC50: > 10000 nM
OVCAR-8
  IC50: > 10000 nM
PC-14
  IC50: > 10000 nM
SBC-5
  IC50: > 10000 nM
SW-620
  IC50: > 10000 nM
T47D
  IC50: > 10000 nM
CWR22R
  IC50: > 10000 nM
5637
  IC50: > 10000 nM
647-V
  IC50: > 10000 nM
8505C
  IC50: > 10000 nM
A-431
  IC50: > 10000 nM
A549
  IC50: > 10000 nM
CAL-12T
  IC50: > 10000 nM
TGBC11TKB
  IC50: > 10000 nM
U-118-MG
  IC50: > 10000 nM
YAPC
  IC50: > 10000 nM
YH-13
  IC50: > 10000 nM
ZR-75-30
  IC50: > 10000 nM
CFPAC-1
  IC50: > 10000 nM

## NC(=O)c1ccc(N(C(N)=O)c2c(F)cccc2F)nc1-c1ccc(F)cc1F [VX-702]
Ca-Ski
  IC50: > 2000 nM
ChaGo-K-1
  IC50: > 2000 nM
D-423MG
  IC50: > 2000 nM
D-566MG
  IC50: > 2000 nM
DMS-79
  IC50: > 2000 nM
GAMG
  IC50: > 2000 nM
GMS-10
  IC50: > 2000 nM
HLE
  IC50: > 2000 nM
HOP-92
  IC50: > 2000 nM
KNS-62
  IC50: > 2000 nM
KP-N-YN
  IC50: > 2000 nM
KYSE-140
  IC50: > 2000 nM
LU-99A
  IC50: > 2000 nM
MOLT-13
  IC50: 160 nM
NBsusSR
  IC50: > 2000 nM
NCI-H1048
  IC50: > 2000 nM
NCI-H2291
  IC50: > 2000 nM
NCI-H358
  IC50: > 2000 nM
NUGC-3
  IC50: > 2000 nM
OE33
  IC50: > 2000 nM
OVCAR-8
  IC50: > 2000 nM
PC-14
  IC50: > 2000 nM
SBC-5
  IC50: > 2000 nM
SW-620
  IC50: > 2000 nM
T47D
  IC50: > 2000 nM
CWR22R
  IC50: > 2000 nM
5637
  IC50: > 2000 nM
647-V
  IC50: > 2000 nM
8505C
  IC50: > 2000 nM
A-431
  IC50: > 2000 nM
A549
  IC50: > 2000 nM
CAL-12T
  IC50: > 2000 nM
TGBC11TKB
  IC50: > 2000 nM
U-118-MG
  IC50: > 2000 nM
YAPC
  IC50: > 2000 nM
YH-13
  IC50: > 2000 nM
ZR-75-30
  IC50: > 2000 nM
CFPAC-1
  IC50: > 2000 nM
